Test systems include COLO 205; DU-145; HCC 2998; HCT-15; HOP-92; HT-29; Hs-578T; K562; MDA-MB-231; MDA-N; MOLT-4; NCI-H23; NCI/ADR-RES; OVCAR-4; OVCAR-5; PC-3; SF-295; SNB-75; UACC-257; UACC-62.
Assay in all cases: growth of human tumour cells (NCI), 48 h

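In this assay, cells in 96-well plates receive the compound at five concentrations for 48 hours. Endpoints are linearly interpolated between the surrounding concentrations. GI50: concentration for 50% inhibition of growth.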 Calls of active or inactive are those of the source. Cut-off read from the data, not from the text of the source: active = GI50 up to about 1.1 µM and inactive = higher.

`CC[C@@]1(OC(=O)CN(C)C)C(=O)OCc2c1cc1n(c2=O)Cc2cc3ccccc3nc2-1`: the GI50 in the test with COLO 205 was 394 nM (active); in the test with DU-145 it was 13 nM (active); in the test on HCC 2998, 145 nM (active); in the test with HCT-15, 228 nM; with HOP-92 it was 119 nM (active); with HT-29, 129 nM (active). For the same compound, the GI50 was 4240 nM (inactive) in the test with Hs-578T; 61 nM (active) in the test on K562; 3270 nM (inactive) in the test on MDA-MB-231; 173 nM (active) in the test on MDA-N; 2.95 nM (active) in the test with MOLT-4; 86.5 nM (active) in the test on NCI-H23. Moreover, the GI50 is 42.1 nM (active) in the test with NCI/ADR-RES; 482 nM (active) in the test on OVCAR-4; 247 nM (active) with OVCAR-5; 97.3 nM (active) with PC-3; 10 nM (active) with SF-295; 64.7 nM (active) in the test with SNB-75. Besides, the GI50 with UACC-257 is 110 nM (active); in the test with UACC-62 it was 5.69 nM (active).

The values above are taken from ChEMBL document CHEMBL1201862, “PubChem BioAssay data set” (2004).
